Measured values reported in US20160346255A1, “METHODS, AGENTS AND COMPOSITIONS FOR TREATMENT OF INFLAMMATORY CONDITIONS” (Betanien Hospital, priority 2014, published 2016).
Non-standard residues stand in square brackets, D forms with d. Residues, ends and D or L forms follow the SMILES beside them. *: point of attachment. dPhe(4-NHCONH2) = NC(=O)Nc1ccc(C[C@@H](N)C(=O)O)cc1; Dihydroorotyl(S) = O=C1C[C@@H](C(=O)*)NC(=O)N1; dPhe(4-Cl) = N[C@H](Cc1ccc(Cl)cc1)C(=O)O; Phe(4-NH2) = Nc1ccc(C[C@H](N)C(=O)O)cc1; d2Nal = N[C@H](Cc1ccc2ccccc2c1)C(=O)O; Lys(iPr) = CC(C)NCCCC[C@H](N)C(=O)O; d3Pal = N[C@H](Cc1cccnc1)C(=O)O

Key:
Type in all cases: in vivo, human
[1] = system: Patient with Ankylosing Spondylitis; assay: Ankylosing spondylitis patient treated with degarelix (and earlier TNF inhibitors); details: for Glomerular filtration rate (>60): 10 Sep. 2014 56; for Creatinine (60-105 μmol/L): 10 Sep. 2014 112; for Urate (230-480 μmol/L): 10 Sep. 2014 515; for CRP: 10 Sep. 2014 <5; for BASDAI: baseline 8.7
Description: Example of Treating a Patient with Ankylosing Spondylitis with a GnRH Antagonist
Diagnosed with ankylosing spondylitis in 1984, HLAB27 positive, with repeated iridocyclitis. Used non-steroidal anti-inflammatory drugs previously. They were offered the TNFα inhibitor Golilimumab in 2010. Their disease activity score was 8.9 in October 2010 (see below for explanation of disease activity score) on initiating Golilimumab; by the June 2012 this score had reduced to 6.6, but by May 2013 the effect had worn off and their score was 7.6. May 2013, they initiated Enbrel treatment, but their disease activity increased from 7.6 to 8.3. Due to their poor response to TNFα therapy, they were offered the GnRH antagonist degarelix in September 2014.
Disease activity in ankylosing spondylitis is measured by the BASDAI (Bath Ankylosing Spondylitis Disease Activity Index (1)), which has been extensively validated in clinical trials, 2, 3 and is one of the most commonly used outcome measures in clinical trials. This is a composite index that evaluates fatigue, axial and peripheral pain, stiffness and enthesopathy. Their BASDAI was at 8.7 at baseline. In September 2014 they received their first dose of degarelix 240 mg s.c. By 2 weeks, their BASDAI had reduced to 6.8, and by 6 weeks it had reduced to 5.8. This is the lowest BASDAI score they have ever had since we first started using this method of assessment 4 years ago in 2010. Their morning stiffness lasted 4 hours at baseline, by 6 weeks their morning stiffness had reduced to 2 hours. They had their second dose of degarelix 80 mg s.c in October 2014. Lumbar flexion and maximum arm abduction were increased after 6 weeks of treatment.
Response to therapy in clinical practice is defined as improvement of 2 units or 50% on a 0-10 scale of the BASDAI, and expert opinion that the treatment should be continued. Their reduction by 6 weeks was 2.9 units, and 7.1 units with an 82% BASDAI score improvement by 9 weeks, and we shall continue treatment. A BASDAI 50% improvement is defined as a major clinical response. […] For comparison, approximately 50-60% of patients achieve a BASDAI 50 by 12 weeks on TNF inhibitors (4). Their ESR has decreased from 46 mm to 23 mm, which is their lowest ESR reading in 19 years. […] By 9 weeks of GnRH antagonist therapy, their kidney function has normalized, and fasting glucose reduced from 7.4 to 6.5 mmol/L. By 3 months, the effect on their ankylosing spondylitis remained, creatinine was at 98 μmol/L, with a glomerular filtration rate of 66 ml/min/1.73 m^2 in December 2014.

[2] = Peripheral GnRH levels by ELISA in patients on degarelix; details: 3 months
Method: (§1) We analysed peripheral GnRH levels in patients with various autoimmune diseases using ELISA. […] Due to the nature of ELISA assays, the concentration in pg/mL should not necessarily be regarded as absolute, and may be interpreted as relative. RA Patient A Baseline GnRH 394 pg/mL, after 3 months of degarelix with loading dose 240 mg, and maintenance doses 80 mg every 2 weeks, GnRH 359 pg/mL. […] During that month/6 weeks […] general function had improved, for example MSIS-29 had reduced from 121 to 110. […] During that period their PASI score reduced by more than 20%. Healthy control 1 baseline GnRH 162 pg/mL, healthy control 2 baseline GnRH 120 pg/mL, healthy control 3 baseline GnRH 153 pg/mL.

[3] = system: peripheral GnRH; assay: as above
Method: as §1

[4] = system: Patient with Rheumatoid Arthritis; assay: Rheumatoid arthritis patient treated with degarelix 40 mg weekly; details: 240 mg loading
Method: • person with seropositive rheumatoid arthritis with disease duration of 22 years. • Fulfilled ACR 2010 classification criteria for rheumatoid arthritis.
• Had tried most therapies available (for example: Humira, Remicade, Enbrel, Actemra, several disease modifying anti-rheumatic drugs), previously without effect or intolerable side effects. • Offered experimental GnRH antagonist therapy, degarelix 40 mg every week with 240 mg loading dose at baseline.

[5] = ankylosing spondylitis patient, after 6 weeks
[6] = ankylosing spondylitis patient, by 3 months, December 2014
[7] = ankylosing spondylitis patient, by 6 weeks
[8] = ankylosing spondylitis patient, by 9 weeks

SMILES: CC(=O)N[C@H](Cc1ccc2ccccc2c1)C(=O)N[C@H](Cc1ccc(Cl)cc1)C(=O)N[C@H](Cc1cccnc1)C(=O)N[C@@H](CO)C(=O)N[C@@H](Cc1ccc(NC(=O)[C@@H]2CC(=O)NC(=O)N2)cc1)C(=O)N[C@H](Cc1ccc(NC(N)=O)cc1)C(=O)N[C@@H](CC(C)C)C(=O)N[C@@H](CCCCNC(C)C)C(=O)N1CCC[C@H]1C(=O)N[C@H](C)C(N)=O [degarelix] (Ac-[d2Nal][dPhe(4-Cl)][d3Pal]S[Phe(4-NH2)](Dihydroorotyl(S))[dPhe(4-NHCONH2)]L[Lys(iPr)]P[dA]-NH2)
- Glucose fasting (4.0-6.0 mmol/L) ([1]; 10 Nov. 2014 (9 weeks), 10 Sep. 2014 7.4): 6.5 mmol/L
- Glomerular filtration rate (>60) ([1]; 10 Nov. 2014): 65 ml/min/1.73 m^2
- Creatinine (60-105 μmol/L) ([1]; 10 Nov. 2014): 99 µmol/L
- Urate (230-480 μmol/L) ([1]; 10 Nov. 2014): 426 µmol/L
- CRP ([1]; 10 Nov. 2014): <5
- Glomerular filtration rate (>60) ([1]; 24 Sep. 2014): 55↓ ml/min/1.73 m^2
- Creatinine (60-105 μmol/L) ([1]; 24 Sep. 2014): 114↑ μmol/L
- Urate (230-480 μmol/L) ([1]; 24 Sep. 2014): 512↑ μmol/L
- ESR (<20 mm) ([1]; 24 Sep. 2014, 10 Sep. 2014 (start) 46): 31↑ mm
- CRP ([1]; 24 Sep. 2014): <5
- ESR (<20 mm) ([1]; 27 Oct. 2014, 10 Sep. 2014 46): 28↑ mm
- Glomerular filtration rate (>60) ([1]; 27 Oct. 2014): 56↓ ml/min/1.73 m^2
- Creatinine (60-105 μmol/L) ([1]; 27 Oct. 2014): 111↑ μmol/L
- Urate (230-480 μmol/L) ([1]; 27 Oct. 2014): 495↑ μmol/L
- CRP ([1]; 27 Oct. 2014): <5
- Lumbar flexion [1, 5]: increased
- Maximum arm abduction [1, 5]: increased
- ASAS response achieved ([1]; ankylosing spondylitis patient, at least 80% improvement): ASAS 80
- BASDAI ([1]; ankylosing spondylitis patient, by 2 weeks): 6.8
- Creatinine [1, 6]: 98 µmol/L
- Glomerular filtration rate [1, 6]: 66 ml/min/1.73 m^2
- BASDAI reduction [1, 7]: 2.9 units
- BASDAI [1, 7]: 5.8
- Morning stiffness ([1]; ankylosing spondylitis patient, by 6 weeks, baseline 4 hours): 2 h
- BASDAI reduction [1, 8]: 7.1 units
- BASDAI score improvement [1, 8]: 82%
- Kidney function [1, 8]: normalized
- PASI score reduction ([2]; Psoriasis Patient C): more than 20%
- CRP ([2]; RA Patient A, from 142 mg/L): 54 mg/L
- DAS score ([2]; RA Patient A, from 8.6): 4.2
- Peripheral GnRH (ELISA) ([3]; Multiple Sclerosis Patient B, after 1 month, baseline 318): 210 pg/mL
- Peripheral GnRH (ELISA) ([3]; Psoriasis Patient C, after 3 months, baseline 300): 274 pg/mL
- Peripheral GnRH (ELISA) ([3]; RA Patient A, after 3 months, baseline 394): 359 pg/mL
- CRP ([4]; from 87 mg/L): 67 mg/L
- ESR ([4]; from 62 mm): 38 mm
- Disease activity score (DAS) ([4]; at 2 weeks, from 7.3): 6.7
